Laboratory results taken from ChEMBL document CHEMBL1649268, “Comparative in vitro activity profile of oritavancin against recent gram-positive clinical isolates” (2009).
Values after ≈ are worked out from the molar mass of the structure shown.

How the values were obtained:
[1] = system: Streptococcus; experiment: Antimicrobial activity against erythromycin-susceptible Streptococcus Group F clinical isolates assessed as percent susceptible isolates by broth microdilution method; assay type: functional
[2] = system: Enterococcus faecalis; experiment: Antimicrobial activity against vancomycin-susceptible Enterococcus faecalis clinical isolates assessed as percent susceptible isolates by broth microdilution method; assay type: functional
[3] = system: Staphylococcus epidermidis; experiment: Antimicrobial activity against Staphylococcus epidermidis clinical isolates assessed as percent susceptible isolates by broth microdilution method; assay type: functional
[4] = system: Streptococcus agalactiae; experiment: Antimicrobial activity against Streptococcus agalactiae clinical isolates by broth microdilution method; assay type: functional
[5] = Antimicrobial activity against Streptococcus Group G clinical isolates by broth microdilution method; assay type: functional; settings: Streptococcus sp. 'group G'
[6] = system: Streptococcus agalactiae; experiment: Antimicrobial activity against erythromycin-susceptible Streptococcus agalactiae clinical isolates assessed as percent susceptible isolates by broth microdilution method; assay type: functional
[7] = system: Streptococcus pyogenes; experiment: Antimicrobial activity against erythromycin-susceptible Streptococcus pyogenes clinical isolates assessed as percent susceptible isolates by broth microdilution method; assay type: functional
[8] = system: Staphylococcus haemolyticus; experiment: Antimicrobial activity against oxacillin-resistant Staphylococcus haemolyticus clinical isolates by broth microdilution method; assay type: functional
[9] = Antimicrobial activity against erythromycin-susceptible Streptococcus Group C clinical isolates assessed as percent susceptible isolates by broth microdilution method; assay type: functional, Streptococcus sp. 'group C'
[10] = system: Streptococcus agalactiae; experiment: Antimicrobial activity against erythromycin-susceptible Streptococcus agalactiae clinical isolates by broth microdilution method; assay type: functional
[11] = system: Streptococcus agalactiae; experiment: Antimicrobial activity against erythromycin-nonsusceptible Streptococcus agalactiae clinical isolates by broth microdilution method; assay type: functional
[12] = Antimicrobial activity against erythromycin-nonsusceptible Streptococcus Group C clinical isolates assessed as percent susceptible isolates by broth microdilution method; assay type: functional, Streptococcus sp. 'group C'
[13] = system: Streptococcus agalactiae; experiment: Antimicrobial activity against Streptococcus agalactiae clinical isolates assessed as percent susceptible isolates by broth microdilution method; assay type: functional
[14] = system: Streptococcus agalactiae; experiment: Antimicrobial activity against erythromycin-susceptible Streptococcus agalactiae clinical isolates assessed as resistant isolates by broth microdilution method; assay type: functional
[15] = system: Streptococcus agalactiae; experiment: Antimicrobial activity against erythromycin-nonsusceptible Streptococcus agalactiae clinical isolates assessed as resistant isolates by broth microdilution method; assay type: functional
[16] = system: Streptococcus pyogenes; experiment: Antimicrobial activity against Streptococcus pyogenes clinical isolates assessed as percent susceptible isolates by broth microdilution method; assay type: functional
[17] = system: Staphylococcus haemolyticus; experiment: Antimicrobial activity against Staphylococcus haemolyticus clinical isolates assessed as percent susceptible isolates by broth microdilution method; assay type: functional
[18] = system: Streptococcus; experiment: Antimicrobial activity against erythromycin-nonsusceptible Streptococcus Group F clinical isolates by broth microdilution method; assay type: functional
[19] = system: Streptococcus; experiment: Antimicrobial activity against erythromycin-susceptible Streptococcus Group F clinical isolates by broth microdilution method; assay type: functional
[20] = system: Staphylococcus haemolyticus; experiment: Antimicrobial activity against oxacillin-resistant Staphylococcus haemolyticus clinical isolates assessed as percent susceptible isolates by broth microdilution method; assay type: functional
[21] = Antimicrobial activity against erythromycin-nonsusceptible Streptococcus Group C clinical isolates by broth microdilution method; assay type: functional; settings: Streptococcus sp. 'group C'
[22] = system: Streptococcus pyogenes; experiment: Antimicrobial activity against erythromycin-nonsusceptible Streptococcus pyogenes clinical isolates assessed as percent susceptible isolates by broth microdilution method; assay type: functional
[23] = Antimicrobial activity against erythromycin-susceptible Streptococcus Group G clinical isolates by broth microdilution method; assay type: functional; settings: Streptococcus sp. 'group G'
[24] = system: Streptococcus pyogenes; experiment: Antimicrobial activity against Streptococcus pyogenes clinical isolates by broth microdilution method; assay type: functional
[25] = system: Enterococcus faecium; experiment: Antimicrobial activity against vancomycin-nonsusceptible Enterococcus faecium clinical isolates assessed as percent susceptible isolates by broth microdilution method; assay type: functional
[26] = system: Enterococcus faecium; experiment: Antimicrobial activity against Enterococcus faecium expressing VanA gene clinical isolates by broth microdilution method; assay type: functional
[27] = system: Staphylococcus epidermidis; experiment: Antimicrobial activity against oxacillin-resistant Staphylococcus epidermidis clinical isolates assessed as resistant isolates by broth microdilution method; assay type: functional
[28] = system: Streptococcus pneumoniae; experiment: Antimicrobial activity against penicillin-susceptible Streptococcus pneumoniae clinical isolates assessed as percent susceptible isolates by broth microdilution method; assay type: functional
[29] = system: Streptococcus pyogenes; experiment: Antimicrobial activity against erythromycin-susceptible Streptococcus pyogenes clinical isolates by broth microdilution method; assay type: functional
[30] = system: Staphylococcus aureus; experiment: Antimicrobial activity against oxacillin-susceptible Staphylococcus aureus clinical isolates assessed as percent susceptible isolates by broth microdilution method; assay type: functional
[31] = system: Streptococcus pyogenes; experiment: Antimicrobial activity against erythromycin-nonsusceptible Streptococcus pyogenes clinical isolates by broth microdilution method; assay type: functional
[32] = system: Streptococcus agalactiae; experiment: Antimicrobial activity against Streptococcus agalactiae clinical isolates assessed as resistant isolates by broth microdilution method; assay type: functional
[33] = Antimicrobial activity against erythromycin-susceptible Streptococcus Group G clinical isolates assessed as percent susceptible isolates by broth microdilution method; assay type: functional, Streptococcus sp. 'group G'
[34] = system: Enterococcus faecalis; experiment: Antimicrobial activity against vancomycin-nonsusceptible Enterococcus faecalis clinical isolates assessed as percent susceptible isolates by broth microdilution method; assay type: functional
[35] = system: Streptococcus agalactiae; experiment: Antimicrobial activity against erythromycin-nonsusceptible Streptococcus agalactiae clinical isolates assessed as percent susceptible isolates by broth microdilution method; assay type: functional
[36] = system: Staphylococcus aureus; experiment: Antimicrobial activity against Staphylococcus aureus clinical isolates assessed as resistant isolates by broth microdilution method; assay type: functional
[37] = system: Streptococcus pneumoniae; experiment: Antimicrobial activity against penicillin-susceptible Streptococcus pneumoniae clinical isolates by broth microdilution method; assay type: functional
[38] = system: Enterococcus faecium; experiment: Antimicrobial activity against Enterococcus faecium clinical isolates assessed as percent susceptible isolates by broth microdilution method; assay type: functional
[39] = Antimicrobial activity against Streptococcus Group G clinical isolates assessed as percent susceptible isolates by broth microdilution method; assay type: functional, Streptococcus sp. 'group G'
[40] = system: Streptococcus pneumoniae; experiment: Antimicrobial activity against penicillin-intermediate Streptococcus pneumoniae clinical isolates by broth microdilution method; assay type: functional
[41] = system: Enterococcus faecalis; experiment: Antimicrobial activity against Enterococcus faecalis expressing VanB gene clinical isolates by broth microdilution method; assay type: functional
[42] = system: Streptococcus pneumoniae; experiment: Antimicrobial activity against penicillin-intermediate Streptococcus pneumoniae clinical isolates assessed as percent susceptible isolates by broth microdilution method; assay type: functional
[43] = system: Streptococcus pneumoniae; experiment: Antimicrobial activity against penicillin-resistant Streptococcus pneumoniae clinical isolates by broth microdilution method; assay type: functional
[44] = system: Enterococcus faecalis; experiment: Antimicrobial activity against Enterococcus faecalis clinical isolates by broth microdilution method; assay type: functional
[45] = system: Staphylococcus haemolyticus; experiment: Antimicrobial activity against oxacillin-resistant Staphylococcus haemolyticus clinical isolates assessed as resistant isolates by broth microdilution method; assay type: functional
[46] = system: Staphylococcus aureus; experiment: Antimicrobial activity against oxacillin-resistant Staphylococcus aureus clinical isolates assessed as resistant isolates by broth microdilution method; assay type: functional
[47] = system: Streptococcus pneumoniae; experiment: Antimicrobial activity against penicillin-resistant Streptococcus pneumoniae clinical isolates assessed as percent susceptible isolates by broth microdilution method; assay type: functional
[48] = system: Enterococcus faecalis; experiment: Antimicrobial activity against vancomycin-susceptible Enterococcus faecalis clinical isolates assessed as resistant isolates by broth microdilution method; assay type: functional
[49] = Antimicrobial activity against Streptococcus Group C clinical isolates by broth microdilution method; assay type: functional; settings: Streptococcus sp. 'group C'
[50] = system: Streptococcus; experiment: Antimicrobial activity against Streptococcus Group F clinical isolates by broth microdilution method; assay type: functional
[51] = system: Streptococcus pneumoniae; experiment: Antimicrobial activity against Streptococcus pneumoniae clinical isolates by broth microdilution method; assay type: functional
[52] = Antimicrobial activity against erythromycin-susceptible Streptococcus Group C clinical isolates by broth microdilution method; assay type: functional; settings: Streptococcus sp. 'group C'
[53] = system: Streptococcus pneumoniae; experiment: Antimicrobial activity against Streptococcus pneumoniae clinical isolates assessed as percent susceptible isolates by broth microdilution method; assay type: functional
[54] = Antimicrobial activity against erythromycin-nonsusceptible Streptococcus Group G clinical isolates by broth microdilution method; assay type: functional; settings: Streptococcus sp. 'group G'

## CN[C@H](CC(C)C)C(=O)N[C@H]1C(=O)N[C@@H](CC(N)=O)C(=O)N[C@H]2C(=O)N[C@H]3C(=O)N[C@H](C(=O)N[C@H](C(=O)O)c4cc(O)cc(O)c4-c4cc3ccc4O)[C@H](O)c3ccc(c(Cl)c3)Oc3cc2cc(c3O[C@@H]2O[C@H](CO)[C@@H](O)[C@H](O)[C@H]2O[C@H]2C[C@](C)(N)[C@H](O)[C@H](C)O2)Oc2ccc(cc2Cl)[C@H]1O [VANCOMYCIN]
[1]
  Activity: 100%
[2]
  Activity: 100%
[3]
  Activity: 100%
[4]
  MIC90: 0.5 µg/mL (≈ 0.345 µM)
[5]
  MIC90: 0.5 µg/mL (≈ 0.345 µM)
[6]
  Activity: 100%
[7]
  Activity: 100%
[8]
  MIC90: 2 µg/mL (≈ 1.38 µM)
[9]
  Activity: 100%
[10]
  MIC90: 0.5 µg/mL (≈ 0.345 µM)
[11]
  MIC90: 0.5 µg/mL (≈ 0.345 µM)
[12]
  Activity: 100%
[13]
  Activity: 100%
[14]
  Activity: 0%
[15]
  Activity: 0%
[16]
  Activity: 100%
[17]
  Activity: 100%
[18]
  MIC90: 0.5 µg/mL (≈ 0.345 µM)
[19]
  MIC90: 0.5 µg/mL (≈ 0.345 µM)
[20]
  Activity: 100%
[21]
  MIC90: 0.5 µg/mL (≈ 0.345 µM)
[22]
  Activity: 100%
[23]
  MIC90: 0.5 µg/mL (≈ 0.345 µM)
[24]
  MIC90: 0.25 µg/mL (≈ 0.173 µM)
[25]
  Activity: 0%
[26]
  MIC90: > 256 µg/mL
[27]
  Percent of isolates resistant: 0%
[28]
  Activity: 100%
[29]
  MIC90: 0.25 µg/mL (≈ 0.173 µM)
[30]
  Activity: 100%
[31]
  MIC90: 0.25 µg/mL (≈ 0.173 µM)
[32]
  Activity: 0%
[33]
  Activity: 100%
[34]
  Activity: 0%
[35]
  Activity: 100%
[36]
  Percent resistant isolates: 0%
[37]
  MIC90: 0.25 µg/mL (≈ 0.173 µM)
[38]
  Activity: 42.7%
[39]
  Activity: 100%
[40]
  MIC90: 0.25 µg/mL (≈ 0.173 µM)
[41]
  MIC90: > 256 µg/mL
[42]
  Activity: 100%
[43]
  MIC90: 0.5 µg/mL (≈ 0.345 µM)
[44]
  MIC90: 2 µg/mL (≈ 1.38 µM)
[45]
  Activity: 0%
[46]
  Percent resistant isolates: 0%
[47]
  Activity: 100%
[48]
  Activity: 0%
[49]
  MIC90: 0.5 µg/mL (≈ 0.345 µM)
[50]
  MIC90: 0.5 µg/mL (≈ 0.345 µM)
[51]
  MIC90: 0.25 µg/mL (≈ 0.173 µM)
[52]
  MIC90: 0.5 µg/mL (≈ 0.345 µM)
[53]
  Activity: 100%
[54]
  MIC90: 0.5 µg/mL (≈ 0.345 µM)
